Among the targets are PRKDC (human) (UniProt P78527); PI4KA (human) (UniProt P42356); PIK3C3 (human) (UniProt Q8NEB9); MTOR (human) (UniProt P42345).
Experiment in all cases: SelectScreen, TR FRET
In general terms: TR-FRET usually uses a lanthanide donor and a delayed reading to cut background.

Results on one compound are retold here after the kinase profiling compilation of Christmann-Franck et al. (2016).

The term IC50 denotes the concentration at which inhibition is half-maximal. Read a low IC50 as higher potency.

The structures appear in SMILES notation.

PRKDC (human), sequence (P78527 whole entry, looked up): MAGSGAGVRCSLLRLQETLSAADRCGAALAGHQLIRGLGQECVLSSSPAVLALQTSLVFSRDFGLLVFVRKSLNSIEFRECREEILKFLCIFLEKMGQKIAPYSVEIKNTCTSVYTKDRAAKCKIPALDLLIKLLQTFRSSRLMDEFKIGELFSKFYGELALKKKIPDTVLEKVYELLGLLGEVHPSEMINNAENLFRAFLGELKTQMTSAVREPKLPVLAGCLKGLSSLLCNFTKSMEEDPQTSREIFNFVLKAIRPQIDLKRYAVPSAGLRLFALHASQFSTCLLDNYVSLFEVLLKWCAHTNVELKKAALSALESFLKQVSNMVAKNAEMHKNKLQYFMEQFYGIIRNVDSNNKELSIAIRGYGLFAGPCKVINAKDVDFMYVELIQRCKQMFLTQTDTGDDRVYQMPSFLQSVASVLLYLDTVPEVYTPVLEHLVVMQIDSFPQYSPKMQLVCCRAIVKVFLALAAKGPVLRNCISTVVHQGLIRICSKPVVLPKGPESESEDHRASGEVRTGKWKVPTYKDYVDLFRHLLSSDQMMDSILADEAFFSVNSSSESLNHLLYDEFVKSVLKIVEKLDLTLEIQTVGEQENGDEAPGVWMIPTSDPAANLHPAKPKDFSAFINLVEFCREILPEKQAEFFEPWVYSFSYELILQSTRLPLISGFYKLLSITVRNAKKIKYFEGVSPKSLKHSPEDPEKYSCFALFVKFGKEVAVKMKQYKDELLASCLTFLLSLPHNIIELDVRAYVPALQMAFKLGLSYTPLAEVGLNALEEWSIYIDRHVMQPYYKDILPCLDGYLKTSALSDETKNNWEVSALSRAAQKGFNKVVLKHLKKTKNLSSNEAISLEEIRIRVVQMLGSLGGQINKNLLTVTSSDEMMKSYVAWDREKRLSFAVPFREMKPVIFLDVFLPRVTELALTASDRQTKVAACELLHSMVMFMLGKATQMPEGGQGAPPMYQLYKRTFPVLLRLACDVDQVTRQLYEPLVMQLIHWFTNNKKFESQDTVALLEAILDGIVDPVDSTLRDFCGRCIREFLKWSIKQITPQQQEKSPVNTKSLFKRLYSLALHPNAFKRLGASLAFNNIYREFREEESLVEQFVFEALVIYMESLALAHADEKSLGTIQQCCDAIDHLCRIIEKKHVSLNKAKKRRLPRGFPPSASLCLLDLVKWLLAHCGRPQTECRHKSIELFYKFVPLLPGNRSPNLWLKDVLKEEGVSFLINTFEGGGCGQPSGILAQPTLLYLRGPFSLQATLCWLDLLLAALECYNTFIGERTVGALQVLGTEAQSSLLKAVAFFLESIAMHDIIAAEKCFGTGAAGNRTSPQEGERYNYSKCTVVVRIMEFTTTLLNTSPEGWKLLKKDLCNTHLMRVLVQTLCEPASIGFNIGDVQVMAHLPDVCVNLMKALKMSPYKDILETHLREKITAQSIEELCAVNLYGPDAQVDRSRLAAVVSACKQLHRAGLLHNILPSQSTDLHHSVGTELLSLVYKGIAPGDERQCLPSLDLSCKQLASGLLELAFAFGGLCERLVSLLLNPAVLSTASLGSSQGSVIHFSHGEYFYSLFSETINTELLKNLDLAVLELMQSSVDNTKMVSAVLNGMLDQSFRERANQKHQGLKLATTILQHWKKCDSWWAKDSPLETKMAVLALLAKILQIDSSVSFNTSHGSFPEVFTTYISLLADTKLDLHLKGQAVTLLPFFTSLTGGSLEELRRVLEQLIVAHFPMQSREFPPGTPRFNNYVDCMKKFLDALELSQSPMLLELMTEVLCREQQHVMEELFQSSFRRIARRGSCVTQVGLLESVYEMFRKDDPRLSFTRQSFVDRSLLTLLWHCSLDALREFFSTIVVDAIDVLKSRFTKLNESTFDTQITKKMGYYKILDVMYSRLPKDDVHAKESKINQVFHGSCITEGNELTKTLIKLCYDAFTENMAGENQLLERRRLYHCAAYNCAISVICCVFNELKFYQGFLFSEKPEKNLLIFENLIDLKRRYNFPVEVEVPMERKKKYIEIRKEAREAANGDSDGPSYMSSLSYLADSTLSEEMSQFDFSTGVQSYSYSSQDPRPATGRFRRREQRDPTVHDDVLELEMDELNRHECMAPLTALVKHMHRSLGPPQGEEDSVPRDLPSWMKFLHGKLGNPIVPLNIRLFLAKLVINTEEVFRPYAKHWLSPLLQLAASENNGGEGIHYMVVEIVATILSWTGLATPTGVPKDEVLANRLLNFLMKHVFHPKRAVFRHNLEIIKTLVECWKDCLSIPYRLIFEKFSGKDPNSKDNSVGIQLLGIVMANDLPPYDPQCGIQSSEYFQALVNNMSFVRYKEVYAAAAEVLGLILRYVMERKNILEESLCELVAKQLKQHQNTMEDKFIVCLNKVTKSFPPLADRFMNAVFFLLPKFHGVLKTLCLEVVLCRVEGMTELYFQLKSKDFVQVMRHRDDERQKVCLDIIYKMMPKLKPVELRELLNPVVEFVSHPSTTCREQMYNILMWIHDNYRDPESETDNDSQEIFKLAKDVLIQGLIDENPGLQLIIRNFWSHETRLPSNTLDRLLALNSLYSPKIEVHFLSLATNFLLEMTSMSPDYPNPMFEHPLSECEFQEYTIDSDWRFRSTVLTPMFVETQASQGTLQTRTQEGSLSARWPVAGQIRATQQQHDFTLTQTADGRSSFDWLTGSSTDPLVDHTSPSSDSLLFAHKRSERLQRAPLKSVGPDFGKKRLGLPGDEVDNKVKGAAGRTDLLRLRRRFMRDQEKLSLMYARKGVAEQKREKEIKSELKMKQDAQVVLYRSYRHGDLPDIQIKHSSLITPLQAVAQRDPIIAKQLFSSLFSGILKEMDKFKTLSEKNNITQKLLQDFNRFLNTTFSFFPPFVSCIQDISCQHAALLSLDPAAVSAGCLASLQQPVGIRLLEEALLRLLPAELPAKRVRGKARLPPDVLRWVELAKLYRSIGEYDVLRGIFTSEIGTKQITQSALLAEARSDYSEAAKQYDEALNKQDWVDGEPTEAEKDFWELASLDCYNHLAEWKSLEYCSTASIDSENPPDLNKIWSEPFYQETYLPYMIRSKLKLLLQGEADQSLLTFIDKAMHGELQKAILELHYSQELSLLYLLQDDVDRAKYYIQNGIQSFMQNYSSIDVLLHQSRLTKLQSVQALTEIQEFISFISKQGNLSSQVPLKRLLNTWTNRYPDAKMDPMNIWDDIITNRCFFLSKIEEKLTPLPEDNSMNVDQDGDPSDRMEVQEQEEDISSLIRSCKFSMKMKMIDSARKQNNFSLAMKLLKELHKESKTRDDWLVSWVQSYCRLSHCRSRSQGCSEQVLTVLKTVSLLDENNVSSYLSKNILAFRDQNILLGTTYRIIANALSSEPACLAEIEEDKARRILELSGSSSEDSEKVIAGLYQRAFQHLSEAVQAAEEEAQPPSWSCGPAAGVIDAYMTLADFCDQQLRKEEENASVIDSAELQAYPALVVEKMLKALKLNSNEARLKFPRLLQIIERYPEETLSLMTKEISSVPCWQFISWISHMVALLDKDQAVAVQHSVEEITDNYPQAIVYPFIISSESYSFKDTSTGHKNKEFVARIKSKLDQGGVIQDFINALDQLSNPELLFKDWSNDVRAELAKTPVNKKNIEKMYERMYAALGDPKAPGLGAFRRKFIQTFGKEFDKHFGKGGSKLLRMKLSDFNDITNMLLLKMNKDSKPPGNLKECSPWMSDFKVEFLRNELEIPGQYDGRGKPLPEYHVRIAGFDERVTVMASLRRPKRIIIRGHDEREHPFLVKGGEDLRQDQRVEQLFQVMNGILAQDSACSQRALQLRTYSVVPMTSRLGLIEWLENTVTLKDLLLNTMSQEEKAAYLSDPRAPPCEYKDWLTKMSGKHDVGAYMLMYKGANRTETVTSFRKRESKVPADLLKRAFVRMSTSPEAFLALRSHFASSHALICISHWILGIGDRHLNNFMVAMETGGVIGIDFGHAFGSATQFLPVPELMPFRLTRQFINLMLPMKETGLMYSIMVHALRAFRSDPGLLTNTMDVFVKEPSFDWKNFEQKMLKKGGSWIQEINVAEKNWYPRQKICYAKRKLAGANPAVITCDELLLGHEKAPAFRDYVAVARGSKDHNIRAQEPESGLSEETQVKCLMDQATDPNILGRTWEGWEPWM
PIK3C3 (human), sequence (Q8NEB9 whole entry, looked up): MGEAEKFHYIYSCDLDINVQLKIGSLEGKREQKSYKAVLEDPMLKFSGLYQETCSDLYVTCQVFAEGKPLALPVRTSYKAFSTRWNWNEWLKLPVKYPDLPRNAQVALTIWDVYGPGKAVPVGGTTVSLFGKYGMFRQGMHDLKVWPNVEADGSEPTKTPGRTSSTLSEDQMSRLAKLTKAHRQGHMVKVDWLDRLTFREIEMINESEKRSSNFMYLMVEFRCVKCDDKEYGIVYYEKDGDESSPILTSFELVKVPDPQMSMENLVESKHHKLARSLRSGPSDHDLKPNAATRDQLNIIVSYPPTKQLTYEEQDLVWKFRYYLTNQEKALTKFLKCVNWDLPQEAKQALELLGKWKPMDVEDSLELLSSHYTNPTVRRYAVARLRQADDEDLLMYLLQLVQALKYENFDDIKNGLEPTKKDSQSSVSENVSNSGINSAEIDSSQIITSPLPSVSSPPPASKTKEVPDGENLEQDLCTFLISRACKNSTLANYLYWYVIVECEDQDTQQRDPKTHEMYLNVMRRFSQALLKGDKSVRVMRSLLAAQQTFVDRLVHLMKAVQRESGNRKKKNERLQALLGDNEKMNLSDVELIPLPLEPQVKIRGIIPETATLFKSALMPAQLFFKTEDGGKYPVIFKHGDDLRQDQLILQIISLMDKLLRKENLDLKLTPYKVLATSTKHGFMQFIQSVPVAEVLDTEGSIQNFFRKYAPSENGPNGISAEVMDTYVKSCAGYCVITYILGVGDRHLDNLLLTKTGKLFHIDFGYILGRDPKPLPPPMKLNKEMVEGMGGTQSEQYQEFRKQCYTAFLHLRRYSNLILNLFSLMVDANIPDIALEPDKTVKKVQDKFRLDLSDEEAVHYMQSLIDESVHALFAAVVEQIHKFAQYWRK

Take `Cc1cc([C@@H](C)Nc2ccccc2C(=O)O)c2nc(N3CCOCC3)cc(=O)n2c1`: the IC50 against PRKDC (human) turned out to be 0.0537 µM; against PI4KA (human), 8.83 µM; against PIK3C3 (human), 3.39 µM; against MTOR (human) it was 3.93 µM.
